What was measured:
[1] = Lipophilicity, logD of compound by shake flask method; format: physicochemical; settings: octanol/water
[2] = Metabolic stability in human hepatocytes assessed as apparent intrinsic clearance measured per molar; format: ADME, cell-based, Hepatocyte
[3] = target: Voltage-gated inwardly rectifying potassium channel KCNH2 (Homo sapiens, UniProt Q12809); assay: Inhibition of hERG; format: toxicity
CYP (isoform not stated) = CYP (isoform not stated) (Homo sapiens, UniProt P04798+P05177+P05181+P08684+P10632+P10635+P11509+P11712+P13584+P20813+P20815+P20853+P24462+P24903+P33260+P33261+P51589+P78329+P98187+Q02928+Q08477+Q16678+Q16696+Q5TCH4+Q6VVX0+Q7Z449+Q8TAV3+Q96SQ9+Q9HB55); assay: Inhibition of CYP (unknown origin) at 3 uM relative to control; format: ADME, protein assay

Sequence of Voltage-gated inwardly rectifying potassium channel KCNH2 (Q12809 whole entry, canonical isoform): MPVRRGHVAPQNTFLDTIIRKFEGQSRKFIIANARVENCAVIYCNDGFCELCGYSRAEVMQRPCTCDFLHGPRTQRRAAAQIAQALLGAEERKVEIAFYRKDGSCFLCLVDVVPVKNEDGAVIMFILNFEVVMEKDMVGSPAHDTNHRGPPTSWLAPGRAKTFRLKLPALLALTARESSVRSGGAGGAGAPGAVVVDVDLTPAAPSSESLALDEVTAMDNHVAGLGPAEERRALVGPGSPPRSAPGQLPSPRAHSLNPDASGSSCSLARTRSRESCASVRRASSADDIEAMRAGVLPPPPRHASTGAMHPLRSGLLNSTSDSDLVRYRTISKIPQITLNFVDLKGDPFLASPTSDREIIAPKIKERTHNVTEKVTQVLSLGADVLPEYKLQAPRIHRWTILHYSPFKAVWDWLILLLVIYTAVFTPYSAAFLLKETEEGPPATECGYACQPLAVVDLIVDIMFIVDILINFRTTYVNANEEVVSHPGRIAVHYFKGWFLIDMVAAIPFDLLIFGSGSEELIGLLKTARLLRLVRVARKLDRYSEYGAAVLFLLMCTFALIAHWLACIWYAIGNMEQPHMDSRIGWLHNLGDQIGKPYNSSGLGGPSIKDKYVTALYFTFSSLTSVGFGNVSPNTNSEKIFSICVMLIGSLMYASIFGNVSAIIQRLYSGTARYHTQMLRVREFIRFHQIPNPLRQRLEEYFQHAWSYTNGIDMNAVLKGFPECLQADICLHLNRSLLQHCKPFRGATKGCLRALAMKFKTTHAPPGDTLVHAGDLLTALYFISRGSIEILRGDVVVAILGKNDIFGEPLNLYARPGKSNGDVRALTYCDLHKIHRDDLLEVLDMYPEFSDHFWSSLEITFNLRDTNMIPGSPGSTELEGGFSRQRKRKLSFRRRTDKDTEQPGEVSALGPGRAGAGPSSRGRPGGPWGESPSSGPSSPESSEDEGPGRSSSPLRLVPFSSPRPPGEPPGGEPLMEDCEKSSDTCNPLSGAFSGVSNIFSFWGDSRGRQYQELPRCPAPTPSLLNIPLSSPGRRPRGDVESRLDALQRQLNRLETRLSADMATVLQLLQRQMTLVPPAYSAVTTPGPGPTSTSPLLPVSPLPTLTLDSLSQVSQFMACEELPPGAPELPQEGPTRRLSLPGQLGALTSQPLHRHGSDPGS

Compound | CL(app) [2] | also measured
CN(C)C(=O)c1nccc(Nc2c(NC3CCCCC3)c(=O)c2=O)c1O | – | logD [1]: 0.86
C[C@H]1CCCC[C@H]1Nc1c(Nc2ccnc(C(=O)N(C)C)c2O)c(=O)c1=O | 6.8 µL/min | –
C[C@@H]1CCCC[C@@H]1Nc1c(Nc2ccnc(C(=O)N(C)C)c2O)c(=O)c1=O | 4.7 µL/min | –
C[C@@H]1OCCC[C@]1(C)Nc1c(Nc2ccnc(C(=O)N(C)C)c2O)c(=O)c1=O | 2.9 µL/min | IC50 [3]: > 100 µM; inhibition at 3 µM (CYP (isoform not stated)): < 5%
C[C@@H]1CCCC[C@]1(C)Nc1c(Nc2ccnc(C(=O)N(C)C)c2O)c(=O)c1=O | 9.9 µL/min | –

Now from value to compound, other results behind:

CL(app) [2] | Compound | also measured
3.4 µL/min | C[C@H]1OCCC[C@@]1(C)Nc1c(Nc2ccnc(C(=O)N(C)C)c2O)c(=O)c1=O | –
6.9 µL/min | C[C@@H]1CCC[C@H](C)[C@@H]1Nc1c(Nc2ccnc(C(=O)N(C)C)c2O)c(=O)c1=O | –
8.3 µL/min | C[C@H]1CCCC[C@@]1(C)Nc1c(Nc2ccnc(C(=O)N(C)C)c2O)c(=O)c1=O | –
